Measurements: US9902734B2, “Nicotinic acetylcholine receptor agonists” (priority 2010, dated 2018)
“Also recorded” adds a separate entry of the source.

Experiments:
[1] = system: nicotinic receptors; settings: cited from earlier work
[2] = system: nicotinic acetylcholine receptors (cell lines expressing various combinations of nicotinic-receptor subunits); experiment: functional fluorescence bioassay of HPLC fractions across several cell lines; type: cell-based; settings: for nicotinic receptor agonist activity (time-bioactivity profile of HPLC fractions): several cell lines
Experimental: (§1) The structures of compounds 1-6 are set forth below.
(§2) Biological Investigation of Phantasmidine. Semi-preparative HPLC-bioassay analysis was conducted as described previously^9 on the alkaloid fraction of E. anthonyi in several cell lines, including TE-671 (neuromuscular),^16 SH-SY5Y (ganglionic α3*, α3β4*, α7),^15 and several transfected cell lines expressing nicotinic receptor subunit combinations of α2-4 and β2/β4.^12,13,17
(§3) Collected analytical scale fractions in 96-well plates were reconstituted in situ with 300 μL Hanks balanced salt solution containing 20 mM HEPES at pH 7.4 (HBSS/HEPES) and were used as such. Cell lines expressing various nicotinic receptors were maintained in culture and used for functional fluorescence assays including SH-SY5Y, IMR-32, TE-671, KXα3β4R2, KXα4β4R1, and KXα4β2R2, as previously described.^9,11 Briefly, cells were plated onto 96-well poly-D-lysine-coated plates in Dulbecco's modified minimum essential media supplemented with 10% fetal bovine serum (supplemented with Geneticin G418 for KXα3β4R2, KXα4β4R1, and KXα4β2R2 cells) and grown to near confluence. The media was aspirated and the cells were gently washed with 2×100 μL HBSS/HEPES (pH 7.4). A solution of Molecular Devices no-wash membrane potential dye (30 μL) was added and the cells incubated in the dark at room temperature for 1 h. Plates were read on a FLEXSTATION™ (Molecular Devices) robotic plate reader at an excitation wavelength of 530 nm, emission wavelength of 565 nm, with a cutoff filter at 550 nm. Basal fluorescence was measured for 15 s and 30 μL of reconstituted E. anthonyi fraction in HBSS/HEPES were added. Response was measured for 105 s and 30 μL of 300 μM nicotine were added. The nicotine response was measured for 40 s and 30 μL of 160 mM KCl were added. Maximal fluorescence was measured for 40 s. Average basal fluorescence was subtracted and response was taken as the peak fluorescence for each addition divided by the maximal KCl fluorescence. Responses for each fraction were plotted as a function of time and compared to the UV and total ion chromatograms to identify active components. Preparative-scale isolation was then conducted and structures of active components were elucidated.

[3] = biological target: T1, KXα3β4R2 cells (HEK cells expressing rat α3 and β4 nicotinic receptor subunits) (Rattus norvegicus, UniProt P04757+P12392); type: cell-based
T1 construct: expressed in transfected cells; host or cells: HEK cells (KXα3β4R2)

[4] = biological target: T2, K-177 cells (β2-containing) (Homo sapiens, UniProt P17787+P43681); experiment: functional fluorescence bioassay of HPLC fractions; type: cell-based
T2 construct: expressed in transfected cells; host or cells: K-177
Experimental: as §1, §2

[5] = biological target: T3, TE-671 cells (neuromuscular) (Homo sapiens, UniProt P02708+P07510+Q07001); experiment: functional fluorescence (membrane potential dye) bioassay of HPLC fractions; type: cell-based
T3 construct: endogenous in cells; host or cells: TE-671
Experimental: as §1, §2, §3

[6] = biological target: T4, KXα4β2R2 cells (β2-containing) (Rattus norvegicus, UniProt P09483+P12390); experiment: as above; type: cell-based
T4 construct: expressed in transfected cells; host or cells: KXα4β2R2 (G418-selected transfected line)
Experimental: as §1, §2, §3

[7] = system: SH-SY5Y cells (ganglionic α3*, α3β4*, α7); experiment: as above; type: cell-based
Experimental: as §1, §2, §3

[8] = system: IMR-32 cells (β4 nicotinic subunits); experiment: as above; type: cell-based
Experimental: as §1, §2, §3

[9] = biological target: T5, KXα4β4R1 cells (β4 nicotinic subunits) (Rattus norvegicus, UniProt P09483+P12392); experiment: as above; type: cell-based
T5 construct: expressed in transfected cells; host or cells: KXα4β4R1 (G418-selected transfected line)
Experimental: as §1, §2, §3

T1 sequence (P12392 21-495): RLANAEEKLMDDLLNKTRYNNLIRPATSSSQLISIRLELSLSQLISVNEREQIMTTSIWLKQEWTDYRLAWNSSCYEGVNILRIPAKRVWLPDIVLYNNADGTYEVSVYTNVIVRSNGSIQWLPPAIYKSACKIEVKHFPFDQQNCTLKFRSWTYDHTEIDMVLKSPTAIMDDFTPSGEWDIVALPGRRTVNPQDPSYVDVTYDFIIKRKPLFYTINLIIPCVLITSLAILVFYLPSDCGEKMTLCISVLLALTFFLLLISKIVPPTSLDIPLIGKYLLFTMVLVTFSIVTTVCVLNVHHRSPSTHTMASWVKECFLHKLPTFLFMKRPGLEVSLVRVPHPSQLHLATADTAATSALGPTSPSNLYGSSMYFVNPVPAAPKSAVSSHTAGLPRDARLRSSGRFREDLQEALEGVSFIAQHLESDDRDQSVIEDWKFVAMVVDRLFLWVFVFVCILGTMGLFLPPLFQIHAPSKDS
T1 sequence (P04757 26-499): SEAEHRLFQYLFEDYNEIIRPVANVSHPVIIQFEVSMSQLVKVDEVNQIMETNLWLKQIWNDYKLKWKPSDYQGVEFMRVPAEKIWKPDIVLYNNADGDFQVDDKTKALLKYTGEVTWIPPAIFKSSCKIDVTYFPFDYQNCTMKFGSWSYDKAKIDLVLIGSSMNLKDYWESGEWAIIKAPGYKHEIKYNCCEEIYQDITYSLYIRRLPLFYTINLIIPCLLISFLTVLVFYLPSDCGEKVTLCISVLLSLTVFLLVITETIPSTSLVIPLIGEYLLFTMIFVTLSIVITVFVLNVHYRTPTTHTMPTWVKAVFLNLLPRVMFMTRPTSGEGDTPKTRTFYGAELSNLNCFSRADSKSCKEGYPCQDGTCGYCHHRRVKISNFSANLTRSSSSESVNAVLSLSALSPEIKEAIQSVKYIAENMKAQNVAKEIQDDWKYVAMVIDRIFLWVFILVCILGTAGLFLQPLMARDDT
T2 sequence (P43681 29-627): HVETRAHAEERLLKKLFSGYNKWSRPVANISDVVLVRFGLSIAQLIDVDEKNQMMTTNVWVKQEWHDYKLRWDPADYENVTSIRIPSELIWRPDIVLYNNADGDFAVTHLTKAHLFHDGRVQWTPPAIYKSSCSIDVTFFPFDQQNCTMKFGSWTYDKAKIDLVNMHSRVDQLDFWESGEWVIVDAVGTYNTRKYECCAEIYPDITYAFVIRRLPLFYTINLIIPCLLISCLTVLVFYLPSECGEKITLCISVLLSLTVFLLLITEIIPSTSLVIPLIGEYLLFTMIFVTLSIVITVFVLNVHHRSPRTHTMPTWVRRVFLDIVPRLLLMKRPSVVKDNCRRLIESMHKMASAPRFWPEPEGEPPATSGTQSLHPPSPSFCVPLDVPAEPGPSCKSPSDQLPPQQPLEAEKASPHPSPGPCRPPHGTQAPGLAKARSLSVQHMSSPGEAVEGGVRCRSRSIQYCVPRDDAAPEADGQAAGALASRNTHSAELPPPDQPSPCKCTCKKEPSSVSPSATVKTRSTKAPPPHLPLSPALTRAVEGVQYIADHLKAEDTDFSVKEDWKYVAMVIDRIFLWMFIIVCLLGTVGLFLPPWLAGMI
T2 sequence (P17787 26-502): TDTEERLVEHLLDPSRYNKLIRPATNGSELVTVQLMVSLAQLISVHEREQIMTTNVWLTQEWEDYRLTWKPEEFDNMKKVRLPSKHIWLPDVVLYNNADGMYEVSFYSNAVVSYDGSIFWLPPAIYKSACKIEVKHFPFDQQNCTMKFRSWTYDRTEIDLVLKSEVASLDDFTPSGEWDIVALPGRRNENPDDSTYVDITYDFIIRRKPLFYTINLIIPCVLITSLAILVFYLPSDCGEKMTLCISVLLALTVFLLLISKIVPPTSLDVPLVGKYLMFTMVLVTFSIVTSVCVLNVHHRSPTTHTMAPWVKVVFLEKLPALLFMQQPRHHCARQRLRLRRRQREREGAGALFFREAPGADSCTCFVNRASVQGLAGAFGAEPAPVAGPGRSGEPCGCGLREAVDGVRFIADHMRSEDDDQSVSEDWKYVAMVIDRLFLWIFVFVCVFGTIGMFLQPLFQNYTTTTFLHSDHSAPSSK
T5 sequence (P09483 31-630): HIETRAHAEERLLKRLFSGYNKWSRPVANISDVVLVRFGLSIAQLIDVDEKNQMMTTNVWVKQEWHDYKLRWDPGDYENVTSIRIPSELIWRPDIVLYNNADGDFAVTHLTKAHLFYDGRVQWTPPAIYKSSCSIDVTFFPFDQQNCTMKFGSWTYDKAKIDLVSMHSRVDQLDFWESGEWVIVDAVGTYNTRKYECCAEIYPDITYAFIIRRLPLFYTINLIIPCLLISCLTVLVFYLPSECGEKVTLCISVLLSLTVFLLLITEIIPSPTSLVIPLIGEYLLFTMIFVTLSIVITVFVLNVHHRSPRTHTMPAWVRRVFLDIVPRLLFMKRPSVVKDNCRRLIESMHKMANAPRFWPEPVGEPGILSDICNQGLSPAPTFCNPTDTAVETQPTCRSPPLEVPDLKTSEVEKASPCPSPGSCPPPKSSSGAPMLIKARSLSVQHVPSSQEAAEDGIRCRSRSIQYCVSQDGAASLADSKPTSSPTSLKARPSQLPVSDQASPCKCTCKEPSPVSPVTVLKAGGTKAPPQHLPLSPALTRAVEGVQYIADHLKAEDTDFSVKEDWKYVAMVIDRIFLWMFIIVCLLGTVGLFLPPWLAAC
T5 sequence (P12392 21-495): as the sequence (P12392 21-495) above
T3 sequence (P02708 21-457): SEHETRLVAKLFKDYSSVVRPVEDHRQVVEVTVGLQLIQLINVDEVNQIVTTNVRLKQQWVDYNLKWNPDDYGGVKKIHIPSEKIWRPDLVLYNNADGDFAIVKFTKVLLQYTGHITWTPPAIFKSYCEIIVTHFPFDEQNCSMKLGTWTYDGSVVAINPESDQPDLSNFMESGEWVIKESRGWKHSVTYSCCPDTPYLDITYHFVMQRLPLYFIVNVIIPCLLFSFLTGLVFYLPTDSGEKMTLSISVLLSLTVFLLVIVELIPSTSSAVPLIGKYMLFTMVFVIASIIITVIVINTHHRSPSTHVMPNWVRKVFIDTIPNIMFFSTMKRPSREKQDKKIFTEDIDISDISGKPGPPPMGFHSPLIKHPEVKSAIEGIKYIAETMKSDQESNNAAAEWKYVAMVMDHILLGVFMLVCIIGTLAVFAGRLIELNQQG
T3 sequence (P11230 24-501 partner): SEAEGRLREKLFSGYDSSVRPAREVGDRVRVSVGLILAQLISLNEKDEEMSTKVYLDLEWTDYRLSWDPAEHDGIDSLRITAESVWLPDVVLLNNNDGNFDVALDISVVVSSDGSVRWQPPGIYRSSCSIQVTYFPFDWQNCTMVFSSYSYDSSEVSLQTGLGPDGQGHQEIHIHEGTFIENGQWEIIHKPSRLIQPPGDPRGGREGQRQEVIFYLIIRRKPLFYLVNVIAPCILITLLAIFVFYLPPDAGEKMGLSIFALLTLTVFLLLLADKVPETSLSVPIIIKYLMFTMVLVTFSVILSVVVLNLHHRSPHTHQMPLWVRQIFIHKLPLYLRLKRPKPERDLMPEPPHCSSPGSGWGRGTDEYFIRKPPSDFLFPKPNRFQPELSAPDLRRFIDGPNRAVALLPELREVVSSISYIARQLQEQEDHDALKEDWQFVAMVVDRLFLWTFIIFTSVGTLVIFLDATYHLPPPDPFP
T3 sequence (P07510 23-517): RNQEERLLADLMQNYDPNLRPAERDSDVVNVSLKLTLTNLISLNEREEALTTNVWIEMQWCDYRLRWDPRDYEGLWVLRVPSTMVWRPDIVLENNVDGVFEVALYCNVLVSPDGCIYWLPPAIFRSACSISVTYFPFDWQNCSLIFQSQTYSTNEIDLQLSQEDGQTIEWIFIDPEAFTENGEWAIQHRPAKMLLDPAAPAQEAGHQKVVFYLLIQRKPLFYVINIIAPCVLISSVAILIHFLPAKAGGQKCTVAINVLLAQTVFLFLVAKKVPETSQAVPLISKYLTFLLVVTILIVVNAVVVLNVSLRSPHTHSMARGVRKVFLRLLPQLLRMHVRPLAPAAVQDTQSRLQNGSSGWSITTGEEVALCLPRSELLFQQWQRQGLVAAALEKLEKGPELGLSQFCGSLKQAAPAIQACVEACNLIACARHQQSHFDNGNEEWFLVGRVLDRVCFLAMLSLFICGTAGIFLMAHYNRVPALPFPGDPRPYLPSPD
T3 sequence (Q07001 22-517): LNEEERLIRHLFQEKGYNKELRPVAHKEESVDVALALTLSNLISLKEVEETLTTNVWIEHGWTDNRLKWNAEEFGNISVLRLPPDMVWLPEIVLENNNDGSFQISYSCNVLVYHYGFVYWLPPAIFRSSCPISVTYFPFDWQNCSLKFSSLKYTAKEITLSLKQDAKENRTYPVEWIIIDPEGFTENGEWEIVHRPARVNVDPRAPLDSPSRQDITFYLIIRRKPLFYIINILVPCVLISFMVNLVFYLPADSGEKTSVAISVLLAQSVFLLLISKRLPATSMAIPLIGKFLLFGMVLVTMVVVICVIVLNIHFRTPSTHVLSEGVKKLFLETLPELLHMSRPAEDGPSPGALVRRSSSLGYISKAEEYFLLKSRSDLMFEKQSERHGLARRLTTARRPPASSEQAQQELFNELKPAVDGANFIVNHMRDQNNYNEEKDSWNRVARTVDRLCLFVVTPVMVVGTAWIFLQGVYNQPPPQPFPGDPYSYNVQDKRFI

In the case of `CN1C2CCC1C(c1ccc(Cl)nc1)C2` (centres unmarked) [Compound 3, N-methylepibatidine], the “potency relative to epibatidine” value [1] is given as “essentially equipotent with epibatidine” and the “nicotinic receptor agonist activity (time-bioactivity profile of HPLC fractions)” value [2] is given as “responsible for the leading edge of the epibatidine activity; also recorded: significant bioactivity”.
With `CC(=O)N[C@H]1CCCN2CCCC[C@@H]12` [Compound 2, epiquinamide, reference compound] the “nicotinic-agonist activity of isolated fraction” value ([3]; cells expressing α3 and β4 subunits, fractions of E. anthonyi alkaloid extract) was “artifactual activity from cross contamination with epibatidine” and the “nicotinic receptor agonist activity (time-bioactivity profile of HPLC fractions)” value [2] was “artifact due to a cross-contamination from 1”.
In the case of `Clc1ccc2c(n1)O[C@@]13CC[C@@H]1NC[C@@H]23` [Compound 4, Phantasmidine], the “relative activity compared to 1 (height and area of activity peaks)” value (shortened to “relative activity”) ([3]; KXα3β4R2 cells) is reported as “higher relative activities”, the “relative activity” value [4] is reported as “less activity” and the “relative activity” value [5] is reported as “less activity”. The “relative activity” value [6] was “less activity”, the “relative activity” value [7] was “higher relative activities” and the “relative activity” value [8] was “higher relative activities”. The “relative activity” value [9] was “higher relative activities”, the “subtype selectivity relative to 1” value ([2]; across several cell lines expressing different nicotinic-receptor subtypes) was “altered subtype selectivity relative to 1” and the “nicotinic receptor agonist activity (time-bioactivity profile of HPLC fractions)” value [2] was “significant bioactivity; also recorded: nicotinic agonist”.
With `Clc1ccc(C2CC3CCC2N3)cn1` (centres unmarked) [Compound 1, epibatidine] the “nicotinic receptor agonist activity (time-bioactivity profile of HPLC fractions)” value [2] was “active in all cell lines to varying degrees; also recorded: greatest activity in the sample regardless of cell line examined”.
